The values that follow come from patent US20220091133A1, “METHODS AND ASSAYS FOR IMMUNE PHENOTYPING” (Washington University, priority 2020, published 2022).

Data set [1] concerns PBMCs (T cell IFN-γ production). Format: cell-based, human.
Data set [2] relates to invasive fungal soft tissue infection (Trichosporon asahii, Fusarium, Saksenaea). The experiment in a line: IL-7 immunotherapy in a patient with intractable fungal wound sepsis (clinical course, lymphocyte count). Format: in vivo, human. As to the method:
Twenty-four hours later, the dosage was increased to 10 μg/kg and continued every 3-4 days for 7 doses. […] As illustrated by serial pictures of the wound, the most notable change following initiation of IL-7 was to slow the progression of the invasive soft tissue necrosis (FIG. 28B, green arrows).
In addition to decreased infectious spread and fungal proliferation, with improved wound healing and healthier-appearing tissue margins, clinical indicators of severity of disease improved within days of IL-7 treatment initiation with improvement of the fever curve, tachycardia, and tachypnea (FIG. 30). Laboratory evidence of resolution of the fungal invasion included progressive decreases in total white blood cell count and increasing absolute lymphocyte counts (FIG. 28A). The patient's absolute lymphocyte count increased >6-fold from a low of 600 lymphocytes/μL to >4000 lymphocytes/μL (upper limit of normal for absolute lymphocyte counts is 3500). Of note, the increase in the patient's absolute lymphocyte count was likely due to both the effect of IL-7 in inducing lymphocyte proliferation and to the resolution of the fungal infection.

In data set [3] the test system is SARS-CoV-2-specific T cells. The experiment in a line: ELISpot, IFN-γ response to SARS-CoV-2 spike glycoprotein and nucleocapsid peptide pool (Example 5). Format: in vivo, human. Conditions: before vs after IL-7 therapy.

“IL-7: recombinant human IL-7, immunoadjuvant and potent T cell activator; R&D Systems ex vivo, RevImmune for patients”: the “mean number of IFN-γ-producing T cells following ex vivo administration of IL-7” value in data set [1] (COVID-19 patient PBMCs, anti-CD3/anti-CD28 + IL-7 50 ng/mL overnight, control without IL-7 101±21, P<0.0001) stood at 201±36. In data set [1] (COVID-19 patients, ELISpot), the “increase of IFN-γ production of stimulated T cells by ex vivo IL-7” value is listed as approximately 2 fold. The “effect of IL-7 to increase the number of IFN-γ-producing T cells” value in data set [1] (septic and CINS patients) was “also observed”. For the same substance, in data set [2] (3 μg/kg ideal body weight intramuscularly, day 59 postinjury), the “tolerability of IL-7 test dose” value is recorded as “well tolerated”. Also, the “onset of significant improvement of clinical status after initiation of IL-7” value in data set [2] (10 μg/kg every 3-4 days for 7 doses after test dose) is 4 to 7 days. Further, in data set [2] (after resolution of wound fungal infection, >700 cm^2), the “definitive closure of open wounds” value is more than 90%. The “absolute lymphocyte count reached” value in data set [2] (from a low of 600 lymphocytes/μL, upper limit of normal 3500) is more than 4000 lymphocytes/μL. Further, in data set [2] (fungal wound sepsis patient on IL-7), the “increase of absolute lymphocyte count” value is more than 6 fold. For the same substance, in data set [3], the “improvement in the number of SARS-CoV-2 spike protein and nucleocapsid specific T cells” value is recorded as “over 30 fold”.
